SMILES strings stand for the structures.

Chain of human MRGPRD (Q8TDS7 whole entry): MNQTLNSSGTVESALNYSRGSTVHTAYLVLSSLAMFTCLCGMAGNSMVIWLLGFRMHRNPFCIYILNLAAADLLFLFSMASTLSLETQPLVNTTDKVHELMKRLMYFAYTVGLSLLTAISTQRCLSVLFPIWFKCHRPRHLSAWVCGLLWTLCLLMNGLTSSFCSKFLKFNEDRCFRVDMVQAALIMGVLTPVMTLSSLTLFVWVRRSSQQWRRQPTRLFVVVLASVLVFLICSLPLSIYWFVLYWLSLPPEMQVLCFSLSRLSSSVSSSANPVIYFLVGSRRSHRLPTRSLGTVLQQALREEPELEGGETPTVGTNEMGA

The experiment addresses human MRGPRD (Homo sapiens, UniProt Q8TDS7). Kind of experiment: MRGPRD antagonist activity, IP-One HTRF assay in CHO cells stably expressing human MRGPRD (versus 100 μM β-Alanine agonist). Format: cell-based. The method in brief:
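IP-1 HTRF read-out, with IC50 from HTRF ratio curves and percent antagonism relative to maximal efficacy (mean, SEM). Antagonists and agonist were co-incubated 1 h at 37 °C plus 1 h at room temperature on overnight-plated MRGPRD-CHO cells in LiCl-containing Tris buffer, pH 8.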
As for `O=C(Nc1cccc(-n2cncn2)c1)c1nnn(-c2ccc(-c3ccccc3)cc2)c1C1CC1` [Compound 14-24], the IC50 (commonly the concentration needed to halve the response being measured) fell in the range of 0.5 to 1 µM.

Compound `Cc1n[nH]c2ncnc(NC(=O)c3nnn(-c4ccc(-c5ccccc5)cc4)c3C3CC3)c12` [Compound 14-25] yielded an IC50 of 0.5 to 1 µM. `N#Cc1cc(NC(=O)c2nnn(-c3ccc(-c4ccccc4)cc3)c2C2CC2)ccn1` [Compound 14-26] displayed an IC50 of 0.5 to 1 µM. The compound `CCn1cc(C(C)NC(=O)c2nnn(-c3ccc(-c4ccccc4)cc3)c2C2CC2)cn1` (stereo not shown) [Compound 14-27] displayed an IC50 of 0.5 to 1 µM. Compound `C[C@H](NC(=O)c1nnn(-c2ccc(-c3ccccc3)cc2)c1C1CC1)c1ccc(Cl)cc1` [Compound 14-28] displayed an IC50 of 1 to 3 µM. Then `O=C(Nc1ccnc2[nH]ncc12)c1nnn(-c2ccc(-c3ccccc3)cc2)c1C1CC1` [Compound 14-29], with 1 to 3 µM; and `O=C(NC1CCSCC1)c1nnn(-c2ccc(-c3ccccc3)cc2)c1C1CC1` [Compound 14-30], with 1 to 3 µM.

In turn, `CCn1cc(CNC(=O)c2nnn(-c3ccc(-c4ccccc4)cc3)c2C2CC2)cn1` [Compound 14-31] came in with an IC50 of 1 to 3 µM. Compound `CC(C)n1cc(CNC(=O)c2nnn(-c3ccc(-c4ccccc4)cc3)c2C2CC2)cn1` [Compound 14-32] yielded an IC50 of 1 to 3 µM. `CC(NC(=O)c1nnn(-c2ccc(-c3ccccc3)cc2)c1C1CC1)c1ccn(C)n1` (stereo not shown) [Compound 14-33] had an IC50 of 1 to 3 µM.

In turn, `Cn1cc(CNC(=O)c2nnn(-c3ccc(-c4ccccc4)cc3)c2C2CC2)cn1` [Compound 14-34] had an IC50 of 1 to 3 µM.

`O=C(NCc1cn[nH]c1)c1nnn(-c2ccc(-c3ccccc3)cc2)c1C1CC1` [Compound 14-36] returned an IC50 of 1 to 3 µM. Compound `CC[C@H](NC(=O)c1nnn(-c2ccc(-c3ccccc3)cc2)c1C1CC1)c1ccccc1` [Compound 14-37] came in with an IC50 of 1 to 3 µM.

The compound `Cn1ncc2c1CCCC2NC(=O)c1nnn(-c2ccc(-c3ccccc3)cc2)c1C1CC1` (stereo not shown) [Compound 14-38] had an IC50 of 1 to 3 µM.

The compound `Cc1c2c(NC(=O)c3nnn(-c4ccc(-c5ccccc5)cc4)c3C3CC3)nccc2nn1C` [Compound 14-39] came in with an IC50 of 1 to 3 µM. In the case of `CO[C@H]1CC[C@H](NC(=O)c2nnn(-c3ccc(-c4ccccc4)cc3)c2C2CC2)CC1` [Compound 14-40] it was 1 to 3 µM; in that of `O=C(NCc1c[nH]cn1)c1nnn(-c2ccc(-c3ccccc3)cc2)c1C1CC1` [Compound 14-41], 1 to 3 µM.

Consider `O=C(NCCc1c[nH]cn1)c1nnn(-c2ccc(-c3ccccc3)cc2)c1C1CC1` [Compound 14-42], for which the 50% inhibitory concentration (IC50) is 1 to 3 µM. As for `CC(NC(=O)c1nnn(-c2ccc(-c3ccccc3)cc2)c1C1CC1)c1cnn(C(C)(C)C)c1` (stereo not shown) [Compound 14-43], the IC50 was 1 to 3 µM. The compound `CC1(C)COCCC1NC(=O)c1nnn(-c2ccc(-c3ccccc3)cc2)c1C1CC1` (stereo not shown) [Compound 14-44] yielded an IC50 of 1 to 3 µM. Consider `CCn1cc(NC(=O)c2nnn(-c3ccc(-c4ccccc4)cc3)c2C2CC2)cn1` [Compound 14-45], for which the IC50 lay within 1 to 3 µM. `O=C(NC1(c2cccnc2)CC1)c1nnn(-c2ccc(-c3ccccc3)cc2)c1C1CC1` [Compound 14-46] gave an IC50 of 1 to 3 µM. Take `CC(NC(=O)c1nnn(-c2ccc(-c3ccccc3)cc2)c1C1CC1)c1ccc(S(C)(=O)=O)cc1` (stereo not shown) [Compound 14-47]: the IC50 is 1 to 3 µM. `O=C(Nc1ccnc(N2CCOCC2)c1)c1nnn(-c2ccc(-c3ccccc3)cc2)c1C1CC1` [Compound 14-48] returned an IC50 of 1 to 3 µM. In turn, `CC(NC(=O)c1nnn(-c2ccc(-c3ccccc3)cc2)c1C1CC1)c1cccnc1` (stereo not shown) [Compound 14-49] gave an IC50 of 1 to 3 µM. Regarding `COc1cc(NC(=O)c2nnn(-c3ccc(-c4ccccc4)cc3)c2C2CC2)ccn1` [Compound 14-50], the IC50 was 1 to 3 µM. Then `Cc1nn(C)c2ccnc(NC(=O)c3nnn(-c4ccc(-c5ccccc5)cc4)c3C3CC3)c12` [Compound 14-51], with 1 to 3 µM.

For the compound `O=C(Nc1ccnc(C(F)(F)F)c1)c1nnn(-c2ccc(-c3ccccc3)cc2)c1C1CC1` [Compound 14-52], the IC50 was 1 to 3 µM. In the case of `O=C(Nc1ncnc2[nH]ncc12)c1nnn(-c2ccc(-c3ccccc3)cc2)c1C1CC1` [Compound 14-53] it was 1 to 3 µM; in that of `O=C(Nc1c(F)cccc1F)c1nnn(-c2ccc(-c3ccccc3)cc2)c1C1CC1` [Compound 14-54], 1 to 3 µM; in that of `Cc1cc(CNC(=O)c2nnn(-c3ccc(-c4ccccc4)cc3)c2C2CC2)nn1C` [Compound 14-55], 1 to 3 µM. `O=C(NC1CC(F)(F)C1)c1nnn(-c2ccc(-c3ccccc3)cc2)c1C1CC1` [Compound 14-56]: the IC50 lay in the range of 1 to 3 µM. On to `O=C(N[C@H]1CCc2ccccc21)c1nnn(-c2ccc(-c3ccccc3)cc2)c1C1CC1` [Compound 14-57], for which the IC50 fell in the range of 1 to 3 µM. With `Cc1cc(NC(=O)c2nnn(-c3ccc(-c4ccccc4)cc3)c2C2CC2)ccc1F` [Compound 14-58], the IC50 is 1 to 3 µM. Regarding `COc1ccc2[nH]cc(CC(C)NC(=O)c3nnn(-c4ccc(-c5ccccc5)cc4)c3C3CC3)c2c1` (stereo not shown) [Compound 14-59], the IC50 fell in the range of 1 to 3 µM. In the case of `O=C(Nc1cncc2[nH]ncc12)c1nnn(-c2ccc(-c3ccccc3)cc2)c1C1CC1` [Compound 14-60] it was 1 to 3 µM; in that of `Cc1n[nH]c2cccc(NC(=O)c3nnn(-c4ccc(-c5ccccc5)cc4)c3C3CC3)c12` [Compound 14-61], 1 to 3 µM. As to `COc1cccc(C)c1NC(=O)c1nnn(-c2ccc(-c3ccccc3)cc2)c1C1CC1` [Compound 14-62], the IC50 was in the range of 1 to 3 µM. On to `Cn1ncc2c(NC(=O)c3nnn(-c4ccc(-c5ccccc5)cc4)c3C3CC3)cccc21` [Compound 14-63], for which the IC50 fell in the range of 1 to 3 µM. `Cc1c(C(C)NC(=O)c2nnn(-c3ccc(-c4ccccc4)cc3)c2C2CC2)cnn1C` (stereo not shown) [Compound 14-64]: the IC50 fell in the range of 1 to 3 µM.

Take `O=C(Nc1cccc2nccn12)c1nnn(-c2ccc(-c3ccccc3)cc2)c1C1CC1` [Compound 14-65]: the IC50 was 1 to 3 µM. `Cc1cn2c(NC(=O)c3nnn(-c4ccc(-c5ccccc5)cc4)c3C3CC3)cccc2n1` [Compound 14-66] showed an IC50 of 1 to 3 µM. Then `O=C(NCCc1cccs1)c1nnn(-c2ccc(-c3ccccc3)cc2)c1C1CC1` [Compound 14-67], with 1 to 3 µM.

On to `O=C(N[C@H]1CCC[C@@H](O)C1)c1nnn(-c2ccc(-c3ccccc3)cc2)c1C1CC1` [Compound 14-68], for which the IC50 lay in the range of 1 to 3 µM. For the compound `Cn1cc(C2(NC(=O)c3nnn(-c4ccc(-c5ccccc5)cc4)c3C3CC3)CC2)cn1` [Compound 14-69], the IC50 was 1 to 3 µM.

Consider `Cn1ncc2c1CCC2NC(=O)c1nnn(-c2ccc(-c3ccccc3)cc2)c1C1CC1` (stereo not shown) [Compound 14-70], for which the IC50 fell in the range of 1 to 3 µM. The compound `Cc1c(NC(=O)c2nnn(-c3ccc(-c4ccccc4)cc3)c2C2CC2)nn(C)c1C` [Compound 14-71] yielded an IC50 greater than 3 µM. In the case of `Cn1cc(NC(=O)c2nnn(-c3ccc(-c4ccccc4)cc3)c2C2CC2)cn1` [Compound 14-72] it was greater than 3 µM. Compound `CC(C)n1cc(NC(=O)c2nnn(-c3ccc(-c4ccccc4)cc3)c2C2CC2)cn1` [Compound 14-73] yielded an IC50 greater than 3 µM. Compound `CC1(NC(=O)c2nnn(-c3ccc(-c4ccccc4)cc3)c2C2CC2)CCOCC1` [Compound 14-74] came in with an IC50 greater than 3 µM. As to `CC(NC(=O)c1nnn(-c2ccc(-c3ccccc3)cc2)c1C1CC1)c1cnn(C)c1` (stereo not shown) [Compound 14-75], the IC50 was greater than 3 µM. The compound `CN(Cc1ccc(N2CCOCC2)cc1)C(=O)c1nnn(-c2ccc(-c3ccccc3)cc2)c1C1CC1` [Compound 14-76] came in with an IC50 greater than 3 µM. `CS(=O)(=O)Nc1cccc(NC(=O)c2nnn(-c3ccc(-c4ccccc4)cc3)c2C2CC2)c1` [Compound 14-77] showed an IC50 greater than 3 µM. Turning to `CCn1cc(NC(=O)c2nnn(-c3ccc(-c4ccccc4)cc3)c2C2CC2)c(C#N)n1` [Compound 14-78], the IC50 is greater than 3 µM.

`Cn1ncc2c(NC(=O)c3nnn(-c4ccc(-c5ccccc5)cc4)c3C3CC3)ncnc21` [Compound 14-79]: the IC50 was greater than 3 µM. Then `O=C(Nc1cnn(C(F)(F)F)c1)c1nnn(-c2ccc(-c3ccccc3)cc2)c1C1CC1` [Compound 14-80], with greater than 3 µM. Then `CC(C)C(NC(=O)c1nnn(-c2ccc(-c3ccccc3)cc2)c1C1CC1)c1cn[nH]c1` (stereo not shown) [Compound 14-81], with greater than 3 µM; and `O=C(N[C@H]1CCC[C@@H]1O)c1nnn(-c2ccc(-c3ccccc3)cc2)c1C1CC1` [Compound 14-82], with greater than 3 µM; and `COCC1(NC(=O)c2nnn(-c3ccc(-c4ccccc4)cc3)c2C2CC2)CCCC1` [Compound 14-83], with greater than 3 µM. Regarding `COc1cc(NC(=O)c2nnn(-c3ccc(-c4ccccc4)cc3)c2C2CC2)c2cn[nH]c2c1` [Compound 14-84], the IC50 is greater than 3 µM. As for `Cn1cc(C(C)(C)NC(=O)c2nnn(-c3ccc(-c4ccccc4)cc3)c2C2CC2)cn1` [Compound 14-85], the IC50 is greater than 3 µM. In turn, `C[C@H](NC(=O)c1nnn(-c2ccc(-c3ccccc3)cc2)c1C1CC1)c1ccccc1` [Compound 14-86] returned an IC50 greater than 3 µM.

Turning to `O=C(Nc1cnn(C2CC2)c1)c1nnn(-c2ccc(-c3ccccc3)cc2)c1C1CC1` [Compound 14-87], the IC50 was greater than 3 µM. Take `CC(=O)c1cc(NC(=O)c2nnn(-c3ccc(-c4ccccc4)cc3)c2C2CC2)ccn1` [Compound 14-88]: the IC50 fell in the range of 1 to 3 µM. Compound `Cc1cc(NC(=O)c2nnn(-c3ccc(-c4ccc(CC#N)cc4)cc3)c2C2CC2)ccn1` [Compound 15-1] came in with an IC50 of less than 0.1 µM. Regarding `Cc1cc(NC(=O)c2nnn(-c3ccc(-c4ccc(C#N)c(F)c4)cc3)c2C2CC2)ccn1` [Compound 15-2], the half-inhibitory concentration (IC50) fell in the range of 0.1 to 0.5 µM. With `Cc1ccc(CNC(=O)c2nnn(-c3ccc(-c4ccc(C#N)cc4)cc3)c2C2CC2)cn1` [Compound 15-3], the IC50 lay within 0.5 to 1 µM.

These data come from patent publication US20260001871A1, “TRIAZOLE DERIVATIVES AS MODULATORS OF MAS-RELATED G-PROTEIN RECEPTOR D” (ESCIENT PHARMACEUTICALS, INC., priority 2022, published 2026).
